# Earlier results as cited in US9999602B2, “Liquid menthol compositions” (DDROPS COMPANY, priority 2013, dated 2018).
# Conditions: FDA review, Federal Register 1987
structure (smiles),measurement,value
"CC(C)[C@@H]1CC[C@@H](C)C[C@H]1O [menthol, (1R, 2S, 5R)-5-menthol-2-(1-methylethyl)-cyclohexanol]",Dose of menthol required for antitussive (cough-suppressant) effect,at least 5 mg
